Patent US9303019B2, “Amino-pyrroline derivatives, and use thereof in the prevention and/or treatment of metabolic syndrome” (UNIVERSITE DE STRASBOURG, priority 2012, dated 2016)

Assays:
[1] = target: I1 receptor (Homo sapiens, UniProt Q9Y2I1); test: Specific binding assay of the I1 receptor on human platelets with [125I]LNP 911
Procedure: Binding assays were performed at 37° C. using [^125I]LNP 911 as radioligand following the general procedure described but adapted to washed whole platelets (Greney, H.; Urosevic, D.; Schann, S.; Dupuy, L.; Bruban, V.; Ehrhardt, J,-D.; Bousquet, P.; Dontenwill, M. [^125I]2-(2-Chloro-4-iodo-phenylamino)-5-methyl-pyrroline (LNP911), a High-Affinity Radioligand Selective for I1 Imidazoline Receptors. Mol. Pharmacol. 2002, 62, 181-191).
Incubation was initiated through the addition of 900 to 950 μl of platelet suspension at a concentration of 500000/μl in a final volume of 1 ml Tyrode albumin and was performed at 37° C. for 5 min (equilibrium conditions). The competitive assays were conducted using a single concentration of radioligand ([…], 200 000 cpm), in the presence of increasing concentrations of suitable non-labelled ligand. Non-specific binding was determined by the binding of [^125I]LNP 911 in the presence of 100 nM of non-labelled LNP 911 and represented about 10% of total radioactivity when […] of [^125I]LNP 911 were used.
The reaction was halted by rapid vacuum filtration through GF/C fibre glass filters followed by five rapid washings of the filters with 3 ml of ice-cold Tyrode ([…], pH 7.35). Radioactivity was measured using a gamma counter (Wallac 1410).
(§1) The competitive assays were analyzed by non-linear regression using the GraphPad programme.
(§2) Ki values were determined using the method described by Cheng and Prussof (Cheng, Y. C.; Prusoff, W. H. Relationship between the Inhibition Constant (Ki) and the Concentration of Inhibitor which causes 50 percent Inhibition (I50) of an Enzymatic Reaction. Biochem. Pharmacol. 1973, 22, 3099-3108).

[2] = test system: α2-adrenergic receptors; test: Binding assay of the α2-adrenergic receptors on CHO cell membranes with [3H]RX821002; set-up: species or system human
Procedure: These membranes (30 μg proteins/ml for CHO-hα2A and CHO-hα2B, 100 μg protein/ml for CHO-hα2C) were incubated for 60 min at ambient temperature in binding buffer (33 mM Tris-HCl, 1 mM EDTA, pH 7.5) in a final volume of 500 μL containing 0.8 or 1 or 2 nM [^3H]RX821002 respectively for the adrenergic receptors hα2A, hα2B and hα2C.
Incubation was halted by rapid vacuum filtration through GF/C glass fibre filters followed by three successive washings in ice-cold binding buffer.
Non-specific binding was determined using 10 μM phentolamine.
as §1, §2

[3] = test system: different receptors, transporters and enzymes; test: Specific binding assay on different receptors, transporters and enzymes; details: assayed at 10^−7 M and 10^−5 M
Procedure: Compound 1 was assayed at two concentrations 10^−7 (1.0E-07) M and […] (1.0E-05) on different receptors, transporters and enzymes using the techniques described in the literature and adapted for the laboratory.

[4] = test system: Sprague-Dawley rats; test: Acute i.v. treatment: renal sympathetic nerve activity and hemodynamic parameters in anesthetized rats; format: in vivo, rat; details: 10 mg/kg i.v.
Procedure: Male Sprague-Dawley rats (10 weeks; Laboratoires Charles River, L'Arbresle, France) were anesthetized with urethane (1.5 g/kg i.p., supplemented with 0.1 g/kg i.v. if necessary) and placed on a hot blanket to maintain rectal temperature at 37° C.
The left renal nerve was carefully isolated and a major branch of the nerve was placed on a bipolar platinum-iridium electrode insulated with silicone gel (604A and B; Wacker Chemie, Munich, Germany). Throughout the experiment the rat was ventilated by means of a tracheal cannula (7-8 ml/kg×72 cycles/min) with a mixture of oxygen and air (˜8%-20%).
Arterial pressure was measured by connecting the arterial catheter to a pressure transducer (TNF-R; Ohmeda, Bilthoven, Holland) coupled to an amplifier (model 13-4615-52; Gould, Cleveland, Ohio).
Renal sympathetic nerve activity (RSNA) was amplified (×50,000), the pass-band filtered (300-3000 Hz; Model P-511J; Grass, Quincy, Mass.) and rectified with a home-built analogue rectifier including a low frequency filter with a cut-off frequency of 150 Hz.
The 2 parameters were continuously recorded using a computer equipped with an analogue-digital converter (model AT-MIO-16; National Instruments, Austin, Tex.) and LabVIEW 5.1 software (National Instruments).
Arterial pressure and RSNA were recorded before (baseline) and after administering compound 1 (10 mg/kg, i.v.). At the end of the recording session, chlorisondamine, a ganglionic blocker, was administered (2.5 mg/kg, i.v.) to evaluate the level of background noise which was then subtracted from all RSNA data for subsequent analyses. At the end of the experiment, the rats were euthanized with an intravenous overdose of sodium pentobarbital.

[5] = test system: SHHF rats; test: Chronic treatment: arterial pressure and heart rate in SHHF rats; format: in vivo, rat; details: 20 mg/kg/d in drinking water, 12 weeks
Procedure: Male SHHF rats (spontaneously hypertensive, heart failure) aged 12 weeks were used for this study (Charles River breeding centre, L'Arbresle, France).
The animals were placed in a room with controlled temperature and light, had free access to tap water and were fed a standard diet (A04, SAFE, Augy, France). This study was conducted in agreement with institutional recommendations and the rules laid down by the European Community for the use of experimental animals (L358-86/609/EEC).
Compound 1 was administered in the drinking water for 12 weeks at a dose of 20 mg/kg/d (n=17). Water consumption was regularly measured to adjust the concentration of compound 1. Non-treated control SHHF rats had access to normal water (n=10).
Body weight, water and food intake were measured every day. […] Three days later, arterial pressure and heart rate were recorded and a glucose tolerance test was performed.
The rats were anesthetized with pentobarbital 50 mg/kg, i.p. (Céa santé animale, Libourne, France) and tracheotomized. […] Arterial pressure was recorded after stabilization with a pressure transducer (Gould P23XL) and recorder (Gould Electronics BS 272, Longjumeau, France). Mean arterial pressure (MAP) was calculated as diastolic pressure plus one third of differential arterial pressure. Heart rate was also recorded from the pressure signal using a Gould Biotach amplifier (model 13-4615-66).

Chain of I1 receptor (Q9Y2I1 2-1504 limits assumed): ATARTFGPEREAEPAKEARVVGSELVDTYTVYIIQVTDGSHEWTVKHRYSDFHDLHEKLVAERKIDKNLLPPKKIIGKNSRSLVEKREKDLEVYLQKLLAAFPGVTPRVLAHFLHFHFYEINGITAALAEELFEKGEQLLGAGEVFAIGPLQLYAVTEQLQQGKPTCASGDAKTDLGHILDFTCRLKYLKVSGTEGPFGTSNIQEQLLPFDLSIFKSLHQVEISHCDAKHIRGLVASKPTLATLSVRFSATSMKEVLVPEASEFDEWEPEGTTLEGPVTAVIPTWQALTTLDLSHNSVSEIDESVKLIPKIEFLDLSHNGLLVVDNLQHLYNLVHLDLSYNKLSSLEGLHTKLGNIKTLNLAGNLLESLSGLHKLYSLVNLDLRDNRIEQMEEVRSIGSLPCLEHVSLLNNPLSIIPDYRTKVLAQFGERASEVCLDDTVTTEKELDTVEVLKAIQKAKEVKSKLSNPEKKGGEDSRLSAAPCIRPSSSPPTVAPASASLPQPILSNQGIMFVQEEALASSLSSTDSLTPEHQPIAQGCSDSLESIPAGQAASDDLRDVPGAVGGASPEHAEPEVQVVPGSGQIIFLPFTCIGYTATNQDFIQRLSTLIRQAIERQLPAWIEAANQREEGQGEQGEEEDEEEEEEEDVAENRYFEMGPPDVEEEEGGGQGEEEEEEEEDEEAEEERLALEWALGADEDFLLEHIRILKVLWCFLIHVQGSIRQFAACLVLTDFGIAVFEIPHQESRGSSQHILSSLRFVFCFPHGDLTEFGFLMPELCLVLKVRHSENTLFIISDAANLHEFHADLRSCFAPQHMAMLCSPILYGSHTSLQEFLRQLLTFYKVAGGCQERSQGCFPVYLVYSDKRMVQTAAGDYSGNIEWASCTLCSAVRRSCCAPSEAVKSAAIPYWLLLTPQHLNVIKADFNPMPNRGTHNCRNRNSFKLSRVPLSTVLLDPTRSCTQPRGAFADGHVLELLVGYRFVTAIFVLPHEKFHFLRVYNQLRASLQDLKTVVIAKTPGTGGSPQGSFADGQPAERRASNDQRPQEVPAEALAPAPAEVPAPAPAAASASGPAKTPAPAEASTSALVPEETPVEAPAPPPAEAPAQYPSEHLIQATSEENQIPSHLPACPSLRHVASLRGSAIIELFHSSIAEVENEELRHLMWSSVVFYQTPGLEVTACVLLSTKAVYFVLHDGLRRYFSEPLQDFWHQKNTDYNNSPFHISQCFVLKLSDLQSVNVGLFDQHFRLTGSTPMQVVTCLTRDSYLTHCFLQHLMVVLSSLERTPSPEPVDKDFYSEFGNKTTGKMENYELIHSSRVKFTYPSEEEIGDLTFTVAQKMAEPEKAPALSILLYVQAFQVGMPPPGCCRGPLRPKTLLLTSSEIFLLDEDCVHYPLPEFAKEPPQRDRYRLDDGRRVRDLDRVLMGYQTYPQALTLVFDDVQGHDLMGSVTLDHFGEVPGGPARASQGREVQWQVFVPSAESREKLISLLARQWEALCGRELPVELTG

With `Cc1c(Cl)cccc1NC1=NCC(C)C1.Cl` (stereo not shown) [Compound 1, (3-Chloro-2-methyl-phenyl)-(4-methyl-4,5-dihydro-3H-pyrrol-2-yl)-amine hydrochloride] the Ki [1] was 8.1 nM, the Ki ([2]; CHO cells) was > 10000 nM and the “displacement at the α2-adrenergic receptor” value ([2]; concentration of 10^−5 M) was “No significant displacement”. The “affinity for more than 50 receptors, transporters and enzymes” value ([3]; hydrochloride) was “does not exhibit any affinity similar to the affinity for the imidazoline receptor I1”, the “affinity for more than 50 receptors, transporters and enzymes” value ([3]; listed as compound 1, hydrochloride) was “does not bind to any of the assayed receptors, transporters and enzymes with affinity similar” and the “duration of the reduction in renal sympathetic activity, arterial pressure and heart rate” value [4] was “more than one hour”. For the same molecule, the “reduction in renal sympathetic activity” value ([4]; urethane-anesthetized rats) was 50%, the “diastolic arterial pressure (DAP)” value ([4]; vs. 83.2±4 baseline) was 58.6±3.4 mmHg and the “mean arterial pressure (MAP)” value ([4]; vs. 108.±3.4 baseline) was 77.4±3.6 mmHg. For the same molecule, the “systolic arterial pressure (SAP)” value ([4]; vs. 141.7±2.3 baseline) was 105.3±3 mmHg, the heart rate ([4]; vs. 331.4±14 baseline) was 288.4±10.3 bpm and the arterial pressure ([5]; control 176±6) was 153±7 mmHg. For the same molecule, the heart rate ([5]; control 361±8) was 367±6 bpm.
